Structures can show the parent of a compound that is named as a salt. Bridge positions count the residues as written; N and C are the ends. Square brackets hold non-standard residues; d marks the D form. Peptide text beside a SMILES is read from it. * marks the point of attachment. X1 = CC[C@H](C)CCCCC(=O)*; Dab = NCC[C@H](N)C(=O)O
Key:
E. coli isolates = test: Dose-response study, thigh infection model, summary over E. coli isolates; assay type: in vivo, Escherichia coli
Experimental: (§1) Experiments were carried out in the Erasmus Laboratory Animal Science Centre in Rotterdam, The Netherlands in accordance with the EU Animal Directive 2010/63/EU 2010 directive[14] (licence number AVD101002016702) as described before,[15] with approval of the institutional Animal Welfare Body. Outbred female CD-1 mice obtained from Charles River Germany, weighing 20–25 g, 7–8 weeks old, were used in the experiments. The mice were housed under standard conditions with drink and feed supplied ad libitum.
(§2) Mice were rendered neutropenic by intraperitoneal injection of cyclophosphamide of 150 and 100 mg/kg, 4 days and 1 day before infection, respectively. On the day of infection, an overnight culture of the bacteria was diluted in fresh CAMHB and incubated at 37°C for 1 or 2 h depending on the growth rate of the strain. After incubation the inoculum was diluted in CAMHB or saline for the thigh and lung infection model, respectively, in order to obtain approximately 5.0 × 10^7 cfu/mL. Mice were then infected intramuscularly in each thigh (thigh infection model) or intranasally under isoflurane anaesthesia (lung infection model), with 0.05 mL of inoculum containing approximately 2.5 × 10^6 bacteria. Analgesia was given in the form of buprenorphine directly after infection, every 12 h.
(§3) For dose–response studies, a 6 hourly dosing regimen of 1–32 mg/kg was studied in the thigh infection model. Mice were infected with E. coli […], 15, 51 or 71 or K. pneumoniae ATCC 43816, 17, 58 or 74.
(§4) Animals were humanely euthanized 24 h (t = 24 h) after the first dose, unless the welfare of the animals necessitated earlier termination, following animal welfare regulations. Excised thighs were transferred to a pre-cooled 14 mL polypropylene tube containing 2 mL of PBS and were homogenized using a T25 ULTRA-TURRAX (IKA-Werke GmbH & Co, Staufen, Germany). A 10-fold dilution series was prepared and 3 × 10 μL was plated per dilution. The following day, colonies were counted and the number of cfu per thigh was calculated.
(§5) The drug effect was determined by the difference between the log10 cfu values at t = 0 h (mean value of two mice) and t = 24 h (value of individual mice) expressed as Δlog10 cfu. The fAUC/MIC, fCmax/MIC and %fT>MIC were determined based on the simulated time–concentration profiles over 24 h as derived in MicLab 2.71 (MEDIMATICS, Maastricht, The Netherlands) using 200 points per dosing interval.
A sigmoid maximum effect (Emax) model was fitted to the PK/PD index versus Δlog10 cfu data by non-linear regression, and static or a 1 log or 2 log kill effect were determined using GraphPad Prism 8.0 (GraphPad, Inc., San Diego, CA, USA). A two-tailed unpaired t-test was performed in GraphPad Prism 8.0 to determine if there was a significant difference in the fAUC/MIC targets correlating with a static or a 1 log or 2 log decline, between E. coli and K. pneumoniae isolates.

K. pneumoniae isolates = test: Dose-response study, thigh infection model, summary over K. pneumoniae isolates; assay type: in vivo, Klebsiella pneumoniae; details: mouse thigh infection
Experimental: as §1, §2, §3, §4, §5
A sigmoid maximum effect (Emax) model was fitted to the PK/PD index versus Δlog10 cfu data by non-linear regression, and static or a 1 log or 2 log kill effect were determined using GraphPad Prism 8.0 (GraphPad, Inc., San Diego, CA, USA). […]

[1] = Epithelial lining fluid (ELF) concentration from BAL, urea correction; assay type: in vivo; details: lung-infected mice
Experimental: Bronchoalveolar lavage (BAL) was performed immediately after blood collection. The trachea was exposed by a ventral vertical incision in the neck for insertion of a cannula. Lungs were instilled two times with 1 mL of sterile saline, and the fluid was recovered immediately. The recovered lavages were pooled, directly placed on ice, and subsequently stored at −80°C.
By taking BAL fluid samples and a plasma sample at the same timepoint, the concentrations in ELF could be determined. The ratio of the urea concentration in BAL to the concentration in plasma was used to determine the ELF concentration.[17] In short, polymyxin B concentration in ELF was calculated by multiplying the polymyxin B concentration in the BAL fluid by the ratio of the urea concentration in the plasma and BAL fluid: [polymyxin B]ELF = [polymyxin B]BAL × ([urea]Plasma/[urea]BAL). Urea concentrations were measured with an enzymatic assay (QuantiChrom urea assay kit; DIUR-100; BioAssay Systems, Hayward, CA, USA).
Polymyxin B concentrations in plasma, BAL and ultrafiltrates were determined by a validated LC-MS/MS method,[18] with a lower limit of quantification (LOQ) of 0.2 mg/L for plasma and 0.05 mg/L for BAL fluid and ultrafiltrates. […] The residues were dissolved in 0.1 mL of 0.1% formic acid in water and analysed by LC-MS/MS. […] Polymyxin B was analysed on an XBridge C18 column (5 µm, 2.1 × 150 mm; Waters). […]

[2] = two E. coli isolates in which 1 log kill was found

Structure (SMILES): CC[C@H](C)CCCCC(=O)N[C@@H](CCN)C(=O)N[C@H](C(=O)N[C@@H](CCN)C(=O)N[C@H]1CCNC(=O)[C@H]([C@@H](C)O)NC(=O)[C@H](CCN)NC(=O)[C@H](CCN)NC(=O)[C@H](CC(C)C)NC(=O)[C@@H](Cc2ccccc2)NC(=O)[C@H](CCN)NC1=O)[C@@H](C)O [polymyxin B, Polymyxin B sulphate salt] (X1-[Dab]T[Dab][Dab][Dab][dF]L[Dab][Dab]T; lactam 4-C)
- Isolates in which 1 log kill was found (E. coli isolates; E. coli isolates, mouse thigh infection): 2/4
- Target value of fAUC/MIC, static effect, average (E. coli isolates; average of four E. coli isolates, mouse thigh infection, q6h): 64.3
- Target value of fAUC/MIC, static effect, median (E. coli isolates; median of four E. coli isolates, mouse thigh infection, q6h): 63.5
- Target value of fAUC/MIC, static effect, range (E. coli isolates; range over four E. coli isolates, mouse thigh infection, q6h): 27.5–102.6
- fAUC/MIC for 1 log kill, median (E. coli isolates; [2]): 50.6
- fAUC/MIC for 1 log kill, range (E. coli isolates; [2]): 46.8–54.5
- Isolates in which 1 log kill was found (K. pneumoniae isolates; K. pneumoniae isolates): 1/4
- Target value of fAUC/MIC, static effect, average (K. pneumoniae isolates; average of four K. pneumoniae isolates, q6h): 22.4
- Target value of fAUC/MIC, static effect, median (K. pneumoniae isolates; median of four K. pneumoniae isolates, q6h): 11.6
- Target value of fAUC/MIC, static effect, range (K. pneumoniae isolates; range over four K. pneumoniae isolates, q6h): 5.9–60.5
- Concentration in ELF ([1]; 64 mg/kg s.c., BAL, urea correction, data not shown): Low levels
- Concentration in ELF ([1]; other doses (1, 4, 16 mg/kg s.c.), LOQ 0.05 mg/L for BAL fluid): below the LOQ
